Source: US5466716A, “Liposomal trimethylsphingosine” (The Biomembrane Institute, priority 1994, dated 1995)

Tested on: mouse CTLL-2 cells
Assay: CTLL-2 cell proliferation (thymidine incorporation)
Assay type: cell-based
Details: FIG. 10
Description: FIG. 10 depicts the effect of sphingosine derivatives on mouse T-cell line CTLL. Each point is the mean of three replicates. In the figure DMS represents N,N-dimethylsphingosine and TMS represents N,N,N-trimethylsphingosine.
For example, mouse CTLL-2 cells (ATCC No. TIB 214), a T lymphocyte cell line, were plated at 1.5×10^4 cells per well and exposed to test substances. Cell proliferation was monitored by thymidine incorporation.

## CCCCCCCCCCCCC/C=C/[C@@H](O)[C@H](CO)[N+](C)(C)C [TMS, N,N,N-trimethylsphingosine]
  suppression of CTLL-2 cell growth: effective in suppressing CTLL-2 cell growth
